Laboratory results from patent US8822503B2, “2-pyridone compounds” (Taisho Pharmaceutical Co., Ltd, priority 2009, dated 2014).

target: T1, human liver GK (Homo sapiens, UniProt P35557); test: GK activation test; type: biochemical; settings: test compound concentration needed to activate 50% of maximum activation ability; 4 mM 14C-labeled glucose, 2 mM ATP, room temperature, 20 minutes
T1 construct: GST (glutathione S-transferase) (N); made in house; host or cells: E. coli
T1 sequence (P35557 1-466 isoform P35557-2): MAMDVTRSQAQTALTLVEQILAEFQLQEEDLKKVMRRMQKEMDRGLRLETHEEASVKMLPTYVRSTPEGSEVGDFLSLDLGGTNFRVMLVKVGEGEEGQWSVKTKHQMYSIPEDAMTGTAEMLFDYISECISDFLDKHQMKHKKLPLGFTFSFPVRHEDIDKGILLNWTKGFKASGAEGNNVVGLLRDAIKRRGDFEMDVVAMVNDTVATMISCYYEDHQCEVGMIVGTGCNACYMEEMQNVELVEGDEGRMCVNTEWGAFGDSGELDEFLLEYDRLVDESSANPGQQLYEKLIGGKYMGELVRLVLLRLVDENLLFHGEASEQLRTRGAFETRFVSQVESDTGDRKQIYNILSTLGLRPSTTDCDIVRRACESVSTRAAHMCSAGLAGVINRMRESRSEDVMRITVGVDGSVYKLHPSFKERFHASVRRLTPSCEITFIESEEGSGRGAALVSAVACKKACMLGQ
Summary of the method: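 GST-tagged human liver GK from E. coli (0.24 μg/well) with 4 mM 14C-glucose, 2 mM ATP in Hepes-KOH pH 7.1, KCl, MgCl2, DTT, 1% DMSO, 20 min room temperature. Labeled glucose 6-phosphate captured on anion resin, eluted and counted. EC50 = concentration giving half of maximal activation.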

SMILES | EC50
CC(C)(C)c1ccc(/C(=C\CN2C(=O)CCC2=O)c2ccc(Cl)c(=O)[nH]2)cc1 [Example 6-9, 1-[(2E)-3-(4-tert-Butylphenyl)-3-(5-chloro-6-oxo-1,6-dihydropyridin-2-yl)prop-2-en-1-yl]pyrrolidine-2,5-dione] | 0.5 to 3 µM
CC(C)(C)c1ccc(/C(=C\COc2ccccc2)c2ccc(Cl)c(=O)[nH]2)cc1 [Example 6-10, 6-[(1E)-1-(4-tert-Butylphenyl)-3-phenoxyprop-1-en-1-yl]-3-chloropyridin-2(1H)-one] | 0.5 to 3 µM
CC(C)(C)c1ccc(/C(=C\Cn2ccccc2=O)c2ccc(Cl)c(=O)[nH]2)cc1 [Example 6-11, 6-[(1E)-1-(4-tert-Butylphenyl)-3-(2-oxopyridin-1(2H)-yl)prop-1-en-1-yl]-3-chloropyridin-2(1H)-one] | 0.5 to 3 µM
CC(C)(C)c1ccc(/C(=C\CCN2CCCS2(=O)=O)c2ccc(Cl)c(=O)[nH]2)cc1 [Example 6-12, 6-[(1E)-1-(4-tert-Butylphenyl)-4-(1,1-dioxide-1,2-thiazolidin-2-yl)but-1-en-1-yl]-3-chloropyridin-2(1H)-one] | 0.5 to 3 µM
CC(C)(C)c1ccc(/C(=C\CCN2C(=O)CCC2=O)c2ccc(Cl)c(=O)[nH]2)cc1 [Example 6-13, 1-[(3E)-4-(4-tert-Butylphenyl)-4-(5-chloro-6-oxo-1,6-dihydropyridin-2-yl)but-3-en-1-yl]pyrrolidine-2,5-dione] | 0.5 to 3 µM
CC(C)(C)c1ccc(/C(=C\N2CCCC2=O)c2ccc(Cl)c(=O)[nH]2)cc1 [Example 6-14, 6-[(E)-1-(4-tert-Butylphenyl)-2-(2-oxopyrrolidin-1-yl)ethenyl]-3-chloropyridin-2(1H)-one] | 0.5 to 3 µM
CC(C)(C)c1ccc(/C(=C\C(=O)N2CCCC2)c2ccc(Cl)c(=O)[nH]2)cc1 [Example 6-15, 6-[(1E)-1-(4-tert-Butylphenyl)-3-oxo-3-(pyrrolidin-1-yl)prop-1-en-1-yl]-3-chloropyridin-2(1H)-one] | 3 to 10 µM
CN1CCN(C/C=C(\c2ccc(C(C)(C)C)cc2)c2ccc(Cl)c(=O)[nH]2)C1=O [Example 6-16, 6-[(1E)-1-(4-tert-Butylphenyl)-3-(3-methyl-2-oxoimidazolidin-1-yl)prop-1-en-1-yl]-3-chloropyridin-2(1H)-one] | 0.01 to 0.5 µM
CC(C)(C)c1ccc(/C(=C\CN2CCCCCCC2=O)c2ccc(Cl)c(=O)[nH]2)cc1 [Example 6-18, 1-[(2E)-3-(4-tert-Butylphenyl)-3-(5-chloro-6-oxo-1,6-dihydropyridin-2-yl)prop-2-en-1-yl]azocan-2-one] | 3 to 10 µM
CN1CCC(C/C=C(\c2ccc(C(C)(C)C)cc2)c2ccc(Cl)c(=O)[nH]2)C1=O (stereo not drawn) [Example 6-19, 6-[(1E)-1-(4-tert-Butylphenyl)-3-(1-methyl-2-oxopyrrolidin-3-yl)prop-1-en-1-yl]-3-chloropyridin-2(1H)-one] | 0.5 to 3 µM
O=C1CCCN1C/C=C(\c1ccc(S(=O)(=O)C2CC2)cc1)c1ccc(Cl)c(=O)[nH]1 [Example 6-20, 3-Chloro-6-[(1E)-1-[4-(cyclopropylsulfonyl)phenyl]-3-(2-oxopyrrolidin-1-yl)prop-1-en-1-yl]pyridin-2(1H)-one] | 0.5 to 3 µM
O=C1OCCN1C/C=C(\c1ccc(S(=O)(=O)C2CC2)cc1)c1ccc(Cl)c(=O)[nH]1 [Example 6-21, 3-Chloro-6-[(1E)-1-[4-(cyclopropylsulfonyl)phenyl]-3-(2-oxo-1,3-oxazolidin-3-yl)prop-1-en-1-yl]pyridin-2(1H)-one] | 0.5 to 3 µM
CC(C)c1ccc(/C(=C\CN2CCOC2=O)c2ccc(Cl)c(=O)[nH]2)cc1 [Example 6-22, 3-Chloro-6-{(1E)-3-(2-oxo-1,3-oxazolidin-3-yl)-1-[4-(propan-2-yl)phenyl]prop-1-en-1-yl}pyridin-2(1H)-one] | 0.5 to 3 µM
CC(C)(C)c1ccc(/C(=C\Cc2nc(=O)o[nH]2)c2ccc(Cl)c(=O)[nH]2)cc1 [Example 6-23, 6-[(1E)-1-(4-tert-Butylphenyl)-3-(5-oxo-2,5-dihydro-1,2,4-oxadiazol-3-yl)prop-1-en-1-yl]-3-chloropyridin-2(1H)-one] | 3 to 10 µM
CC(C)(C)c1ccc(/C(=C\CCO)c2ccc(Cl)c(=O)[nH]2)cc1 [Example 6-24, 6-[(1E)-1-(4-tert-Butylphenyl)-4-hydroxybut-1-en-1-yl]-3-chloropyridin-2(1H)-one] | 3 to 10 µM
CC(C)(C)c1ccc(/C(=C\CCN2CCCC2=O)c2ccc(Cl)c(=O)[nH]2)cc1 [Example 6-27, 6-[(1E)-1-(4-tert-Butylphenyl)-4-(2-oxopyrrolidin-1-yl)but-1-en-1-yl]-3-chloropyridin-2(1H)-one] | 0.5 to 3 µM
CC(C)(C)c1ccc(/C(=C\Cc2ccccc2)c2ccc(Cl)c(=O)[nH]2)cc1 [Example 6-28, 6-[(1E)-1-(4-tert-Butylphenyl)-3-phenylprop-1-en-1-yl]-3-chloropyridin-2(1H)-one] | 0.5 to 3 µM
Cn1ccc(=O)n(C/C=C(\c2ccc(C(C)(C)C)cc2)c2ccc(Cl)c(=O)[nH]2)c1=O [Example 6-31, 3-[(2E)-3-(4-tert-Butylphenyl)-3-(5-chloro-6-oxo-1,6-dihydropyridin-2-yl)prop-2-en-1-yl]-1-methylpyrimidine-2,4(1H, 3H)-dione] | 0.5 to 3 µM
CC(C)(C)c1ccc(/C(=C\Cn2cccnc2=O)c2ccc(Cl)c(=O)[nH]2)cc1 [Example 6-32, 1-[(2E)-3-(4-tert-Butylphenyl)-3-(5-chloro-6-oxo-1,6-dihydropyridin-2-yl)prop-2-en-1-yl]pyrimidin-2(1H)-one] | 3 to 10 µM
CC(C)(C)c1ccc(/C(=C\Cn2ncccc2=O)c2ccc(Cl)c(=O)[nH]2)cc1 [Example 6-33, 2-[(2E)-3-(4-tert-Butylphenyl)-3-(5-chloro-6-oxo-1,6-dihydropyridin-2-yl)prop-2-en-1-yl]pyridazin-3(2H)-one] | 0.5 to 3 µM
CC(C)(C)c1ccc(/C(=C\Cn2cnccc2=O)c2ccc(Cl)c(=O)[nH]2)cc1 [Example 6-34, 3-[(2E)-3-(4-tert-Butylphenyl)-3-(5-chloro-6-oxo-1,6-dihydropyridin-2-yl)prop-2-en-1-yl]pyrimidin-4(3H)-one] | 0.5 to 3 µM
CC(=O)NC/C=C(\c1ccc(C(C)(C)C)cc1)c1ccc(Cl)c(=O)[nH]1 [Example 6-35, N-[(2E)-3-(4-tert-Butylphenyl)-3-(5-chloro-6-oxo-1,6-dihydropyridin-2-yl)prop-2-en-1-yl]acetamide] | 3 to 10 µM
Cc1c[nH]n(C/C=C(\c2ccc(C(C)(C)C)cc2)c2ccc(Cl)c(=O)[nH]2)c1=O [Example 6-37, 6-[(1E)-1-(4-tert-Butylphenyl)-3-(4-methyl-5-oxo-2,5-dihydro-1H-pyrazol-1-yl)prop-1-en-1-yl]-3-chloropyridin-2(1H)-one] | 0.5 to 3 µM
O=c1[nH]c(C(OC2CCCC2)c2ccc(S(=O)(=O)C3CC3)cc2)ccc1C(F)(F)F (stereo not drawn) [Example 7-2, 6-{(Cyclopentyloxy)[4-(cyclopropylsulfonyl)phenyl]methyl}-3-(trifluoromethyl)pyridin-2(1H)-one] | 3 to 10 µM
O=c1[nH]c(C(Oc2ccc(F)cc2F)c2ccc(S(=O)(=O)C3CC3)cc2)ccc1C1CC1 (stereo not drawn) [Example 7-3, 3-Cyclopropyl-6-[[4-(cyclopropylsulfonyl)phenyl](2,4-difluorophenoxy)methyl]pyridin-2(1H)-one] | 0.01 to 0.5 µM
CC(C)(C)c1ccc(C(SC2CCCC2)c2ccc(Cl)c(=O)[nH]2)cc1 (stereo not drawn) [Example 7-4, 6-[(4-tert-Butylphenyl)(cyclopentylsulfanyl)methyl]-3-chloropyridin-2(1H)-one] | 0.5 to 3 µM
CC(C)(C)c1ccc(C(NC2CCCC2)c2ccc(Cl)c(=O)[nH]2)cc1 (stereo not drawn) [Example 7-5, 6-[(4-tert-Butylphenyl)(cyclopentylamino)methyl]-3-chloropyridin-2(1H)-one] | 3 to 10 µM
